Patent US12403136B2, “Cannabinoid derivatives as pharmaceutically active compounds and methods of preparation thereof” (JAZZ PHARMACEUTICALS RESEARCH UK LIMITED, priority 2019, dated 2025)

System: mouse model of generalised seizure (tonic hind limb extensor convulsions)
Assay: Maximal electroshock seizure threshold (MEST) test in the mouse
Conditions: for % change from vehicle: change in CC50; for CC50 +/− SEM: vehicle CC50 21.0 mA
Experimental: The efficacy of exemplary cannabinoid derivatives according to Formula I and Formula II were tested in a mouse model of generalised seizure, the maximal electroshock seizure threshold (MEST) test.
The maximal electroshock seizure threshold (MEST) test is widely utilized preclinically to evaluate pro- or anti-convulsant properties of test compounds (Loscher et al., 1991).
In the MEST test the ability of a drug to alter the seizure threshold current required to induce hind limb tonic extensor convulsions is measured according to an “up and down” method of shock titration (Kimball et al., 1957). An increase in seizure threshold is indicative of anti-convulsant effect.
Conversely, a reduction in seizure threshold is indicative of a pro-convulsant effect as observed with known convulsant agents such as picrotoxin.
The ability of a test compound to alter the stimulus intensity, expressed as current (mA), required to induce the presence of tonic hind limb extensor convulsions, is assessed in the MEST.
Naïve mice were acclimatised to the procedure room in their home cages for up to 7 days, with food and water available ad libitum.
All animals were weighed at the beginning of the study and randomly assigned to treatment groups based on a mean distribution of body weight across groups.
The first animal within a treatment group was given a shock at the expected or estimated CC50 current. For subsequent animals, the current was lowered or raised depending on the convulsions outcome from the preceding animal.
Data generated from each treatment group were used to calculate the CC50±SEM values for the treatment group.
Vehicle: (5% ethanol, 5% solutol in 90% Saline) was prepared as follows: 2 mL of ethanol, 2 mL of solutol were warmed to 60° C., in 36 mL of saline (1:1:18).
The test compounds used were 12a, 12b, 18a and 18b. Test compounds were administered at 200 mg/kg (i.p.) in a 1:1:18 ethanol:solutol:saline formulation.
The data for each treatment group were recorded as the number of +'s and 0's at each current level employed and this information is then used to calculate the CC50 value (current required for 50% of the animals to show seizure behaviour)±standard error.
Test compound effects were also calculated as percentage change in CC50 from the vehicle control group.
Significant difference between drug-treated animals and controls were assessed according to Litchfield and Wilcoxon (1949).

[1] = 200 mg/kg i.p., 120 min post dose
[2] = 200 mg/kg i.p., test 120 min post dose

SMILES: C=C(C)[C@@H]1CCC(C)=C[C@H]1c1c(O)cc(O)c2c1OCC[C@H]2CC [Compound 18b]
- % change from vehicle [1]: 92%
- CC50 +/− SEM [2]: 40.3 +/− 0.8 mA

SMILES: C=C(C)[C@@H]1CCC(C)=C[C@H]1c1c(O)cc2c(c1O)[C@H](CC)CCC2 [Compound 12a]
- % change from vehicle (200 mg/kg i.p., 60 min post dose): 157%
- CC50 +/− SEM (200 mg/kg i.p., test 60 min post dose): 54.0 +/− 0.2 mA

SMILES: C=C(C)[C@@H]1CCC(C)=C[C@H]1c1c(O)cc(O)c2c1CCC[C@H]2CC [Compound 18a]
- % change from vehicle [1]: 99%
- CC50 +/− SEM [2]: 41.8 +/− 0.5 mA

SMILES: CN1C(=O)CN=C(c2ccccc2)c2cc(Cl)ccc21 [Diazepam, diazepam, reference compound]
- % change from vehicle (diazepam 2.5 mg/kg i.p., 30 min post dose): 66%

SMILES: C=C(C)[C@@H]1CCC(C)=C[C@H]1c1c(O)cc2c(c1O)[C@H](CC)CCO2 [Compound 12b]
- % change from vehicle (200 mg/kg i.p., 30 min post dose): 109%
- CC50 +/− SEM (200 mg/kg i.p., test 30 min post dose): 43.8 +/− 0.2 mA
